Where a chain is given by its changes, count along the chain named. pEC50: −log10 of the molar value.
Legend:
P2X2 F301W+A304W = target: T1, P2X2 F301W+A304W (Homo sapiens, UniProt Q9UBL9, A304W/F301W); test: Fast GCaMP-mScarletI assay in yeast, P2X2 F301W+A304W; format: cell-based; conditions: for Bottom, best fit value / Hillslope, best fit value / Top, best fit value: four-parameter logistic fit of ΔF/ΔT
T1 construct: expressed in transfected cells; host or cells: S. cerevisiae BY4741 background
T1 sequence (Q9UBL9 1-471 F301W/A304W): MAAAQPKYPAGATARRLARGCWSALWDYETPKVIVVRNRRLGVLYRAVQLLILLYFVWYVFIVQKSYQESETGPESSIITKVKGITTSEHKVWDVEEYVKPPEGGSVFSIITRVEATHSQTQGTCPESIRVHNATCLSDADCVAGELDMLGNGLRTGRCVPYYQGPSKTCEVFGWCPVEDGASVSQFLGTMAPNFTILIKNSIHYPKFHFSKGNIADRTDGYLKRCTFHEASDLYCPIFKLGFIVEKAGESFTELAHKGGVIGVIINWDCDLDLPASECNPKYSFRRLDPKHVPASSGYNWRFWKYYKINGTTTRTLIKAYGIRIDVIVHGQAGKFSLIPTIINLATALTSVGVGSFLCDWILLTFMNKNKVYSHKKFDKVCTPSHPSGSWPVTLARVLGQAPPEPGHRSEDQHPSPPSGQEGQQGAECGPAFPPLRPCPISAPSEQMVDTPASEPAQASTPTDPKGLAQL
Procedure: (§1) Figure 4 Unnatural-ligand gating in LBD libraries.A, WT P2X2 was tested with 1 mM ATP, 500 μM AMP-PNP, and compared to ATP with the broken receptor (K81C K83C) control with 1 mM ATP in the fast GCaMP-mScarletI assay (n = 3). […] B, heat map summarizing AMP-PNP signaling (ΔF/ΔT, fast GCaMP-mScarletI assay) in the site-saturation libraries (n = 2–3). All values are normalized to WT P2X2 with saturating amounts of AMP-PNP (500 μM) and therefore represent low signal (ΔF/ΔT) compared to the ATP ligand. C, F301W, F303Y, and A304W were combinatorially combined and tested against the WT, K81C K83C broken P2X2, and the single mutant clones with both ATP (1 mM, black) and AMP-PNP (500 μM, pink). […] Values here represent signal onset and are not normalized to a positive control (n = 2–5). D–K, dose response of each P2X variant with both ATP (black) and AMP-PNP (pink) in the fast GCaMP-mScarletI assay (n = 3). Statistics were performed via one-way ANOVA with Dunnett’s multiple comparisons with to the “broken” K81C K83C negative control. ∗ represents a p value ≤0.05, ∗∗ is p ≤ 0.01, and ∗∗∗ is p ≤ 0.001.
The combined mutations were synergistic, with F303Y + A304W having a predicted additive effect of ca. Ten-fold, relative to the 73-fold seen.
(§2) GCaMP assays were performed as follows. P2X2 GCaMP strains were designed with a bi-cistronic reporter, in which the GCaMP protein was followed by a 2A peptide and a mScarletI reporter ([53]). The co-translated mScarletI was designed to act as a control for plasmid loss, GCaMP breakage via nonsense mutation, and contamination. […] P2X2-GCaMP strains were cultured and induced as previously described. Samples were induced for 24 h to allow for the accumulation of the mature GCaMP protein. Cells were washed three times in 0.1 M MES/Tris buffer and resuspended with MES/Tris with supplemental calcium. Cells were loaded onto a black, clear bottom microplate and imaged on a FlexStation3 plate reader. Samples were imaged in “flex” mode. Samples were imaged for 48 s at an interval of 1.6 s. Fluorescence was measured with an excitation at 485 nm, and emission 525 nm. At the 21 s mark, 100 μl ligand solution was transferred to the cells. For strains with mScarlet, fluorescence was read with excitation 570 nm/emission 610 nm. Slopes were calculated from the last 6 points of measurement and were normalized to the positive control samples. Any replicate in which the mScarlet value was measured to be over 2 standard deviations less than the mean for that set was discarded from further analysis.
(§3) For multiple comparisons in the site-saturation screening data, One-way ANOVA with Dunnett’s multiple comparisons test was performed where every sample was compared to the “broken” negative control. Significance was plotted where ∗ represents a p value ≤0.05, ∗∗ is p ≤0.01, and ∗∗∗ is p ≤0.001. Dose–response curves were fit with nonlinear regression software using a four-parameter logistic curve. All statistics were calculated and plotted in Graphpad Prism software.

P2X2 F301W = target: T2, P2X2 F301W (Homo sapiens, UniProt Q9UBL9, F301W); test: Fast GCaMP-mScarletI assay in yeast, P2X2 F301W; format: cell-based; conditions: for Bottom, best fit value / Hillslope, best fit value / Top, best fit value: four-parameter logistic fit of ΔF/ΔT; for Bottom, best fit value / Hillslope, best fit value / Top, best fit value / pEC50: n = 3; for pEC50: four-parameter logistic fit, unit inferred, unit M, read-out: EC50, best fit value
T2 construct: expressed in transfected cells; host or cells: S. cerevisiae BY4741 background
T2 sequence (Q9UBL9 1-471 F301W): T1 sequence (Q9UBL9 1-471 F301W/A304W) with W304A
Procedure: as §1
Given that the yeast-based screen seemed to recapitulate important structural and functional features of human ion channel function, we hypothesized that it might be possible to engineer new P2X2 functionalities in yeast, including new ligand specificity. […] We screened our 133-member library in the presence of 500 μM AMP-PNP (Fig. S7). While the AMP-PNP signal was uniformly low, three substitutions (F301W, F303Y, and A304W) increased signaling 2.5 to 2.8 times relative to the negative control receptor (Figs. 4B, and S7, D, F, and G). To gain a more complete view of the properties of these mutants, dose–response curves were generated with ATP and AMP-PNP (Fig. 4, D–G, and Table S2).
as §2, §3

Row | improvement compared to the WT channel (rate of signal onset ΔF/ΔT) (P2X2 F301W+A304W; at 500 μM AMP-PNP) [fold] | activity compared to the wild-type (P2X2 F301W; AMP-PNP dose-response, Fig. 4D-G, Table S2) [fold] | Compound | Bottom, best fit value (P2X2 F301W+A304W; n = 3) | Hillslope, best fit value (P2X2 F301W+A304W; n = 3) | Top, best fit value (P2X2 F301W+A304W; n = 3) | Bottom, best fit value (P2X2 F301W) | Hillslope, best fit value (P2X2 F301W) | Top, best fit value (P2X2 F301W) | pEC50 (P2X2 F301W) | pEC50 (P2X2 F301W+A304W; four-parameter logistic fit, n = 3, unit inferred, unit M, read-out: EC50, best fit value)
1 | 24 | 5.28 | Nc1ncnc2c1ncn2[C@@H]1O[C@H](COP(=O)(O)OP(=O)(O)NP(=O)(O)O)[C@@H](O)[C@H]1O [AMP-PNP] | -0.492 | 1.649 | 81.84 | 0.4523 | 2.135 | 5.973 | 3.67 | 
2 |  |  | Nc1ncnc2c1ncn2[C@@H]1O[C@H](COP(=O)(O)OP(=O)(O)OP(=O)(O)O)[C@@H](O)[C@H]1O [ATP] | -5.28 | 1.07 | 207.50 | -0.0044 | 0.94 | 37.70 | 5.30 | 4.68

Reference: paper PMC11063903, “Engineering a human P2X2 receptor with altered ligand selectivity in yeast” (The Journal of Biological Chemistry, 2024)
